Measurements as given in patent publication US4399067A.
Values after ≈ are worked out from the molar mass of the structure shown.

Legend:
[1] = system: Bacillus subtilis ATCC 6633; test: Agar-plate disc-diffusion test; assay type: cell-based; settings: compound at 1 mg/ml, 7-mm disc, 24-48 hours at 25-37° C.
Description: | ^b Grown on minimal nutrient agar

Staphylococcus aureus = test: In vivo activity against experimental bacterial infection in mice; settings: two doses, dose protecting fifty percent of the test animals
Streptococcus pyogenes = test: as above; settings: two doses, dose protecting fifty percent of the test animals
[2] = Acute toxicity, intravenous, mice; settings: mouse, in vivo, administered intravenously to mice
[3] = system: Staphylococcus epidermidis EPI2; assay type: cell-based; settings: agar-dilution
Description: (§1) The results of the antibacterial testing of a representative compound of formula 1, using the standard agar-dilution test, are summarized in Table II.

Streptococcus Group 9960 = assay type: cell-based; settings: agar-dilution
Description: as §1

[4] = system: Streptococcus pyogenes C203; assay type: cell-based; settings: agar-dilution
Description: as §1

[5] = system: Staphylococcus epidermidis EPI1; assay type: cell-based; settings: agar-dilution
Description: as §1

[6] = system: Staphylococcus aureus X1.1; assay type: cell-based; settings: agar-dilution
Description: as §1

[7] = system: Streptococcus Group D X66; assay type: cell-based; settings: agar-dilution
Description: as §1

[8] = system: Staphylococcus aureus V41; assay type: cell-based; settings: agar-dilution; penicillin-resistant strain
Description: as §1
^b Pencillinresistant strain

[9] = system: Staphylococcus aureus X400; assay type: cell-based; settings: agar-dilution; methicillin-resistant strain
Description: as §1
^c Methicillinresistant-strain

| SMILES | Size of Zone of Inhibition, B. subtilis ATCC 6633 grown on minimal nutrient agar [1] | ED50, Staphylococcus aureus, Subcutaneous (Staphylococcus aureus) | ED50, Streptococcus pyogenes, Oral (Streptococcus pyogenes; oral) | ED50, Streptococcus pyogenes, Subcutaneous (Streptococcus pyogenes; subcutaneous) | LD50 [2] | MIC, Staphylococcus epidermidis EPI2 [3] | MIC, Streptococcus Group 9960 (Streptococcus Group 9960) | MIC, Streptococcus pyogenes C203 [4] | MIC, Staphylococcus epidermidis EPI1 [5] | MIC, Staphylococcus aureus X1.1 [6] | MIC, Streptococcus Group D X66 [7] | MIC, Staphylococcus aureus V41 [8] | MIC, Staphylococcus aureus X400 [9] |
| --- | --- | --- | --- | --- | --- | --- | --- | --- | --- | --- | --- | --- | --- |
| CCCCCCCCCCCCOc1ccc(C(=O)N[C@@H](Cc2c[nH]c3ccccc23)C(=O)N[C@@H](CC(N)=O)C(=O)N[C@@H](CC(=O)O)C(=O)N[C@@H]2C(=O)NCC(=O)N[C@@H](CCCNC(=O)OC(C)(C)C)C(=O)N[C@@H](CC(=O)O)C(=O)N[C@H](C)C(=O)N[C@@H](CC(=O)O)C(=O)NCC(=O)N[C@H](CO)C(=O)N[C@@H]([C@H](C)CC(=O)O)C(=O)N[C@@H](CC(=O)c3ccccc3N)C(=O)O[C@@H]2C)cc1 [Example 1] | 22 mm |  |  |  |  |  |  |  |  |  |  |  |  |
| CCCCCCCCCCCCOc1ccc(C(=O)N[C@@H](Cc2c[nH]c3ccccc23)C(=O)N[C@@H](CC(N)=O)C(=O)N[C@@H](CC(=O)O)C(=O)N[C@@H]2C(=O)NCC(=O)N[C@@H](CCCN)C(=O)N[C@@H](CC(=O)O)C(=O)N[C@H](C)C(=O)N[C@@H](CC(=O)O)C(=O)NCC(=O)N[C@H](CO)C(=O)N[C@@H]([C@H](C)CC(=O)O)C(=O)N[C@@H](CC(=O)c3ccccc3N)C(=O)O[C@@H]2C)cc1 [Example 2, NTrp -p-(n-dodecyloxy)benzoyl-A-21978C Nucleus] | 20 mm | 3.35 mg/kg × 2 | > 200 mg/kg × 2 | 0.31 mg/kg × 2 | 67.5 mg/kg | 2 µg/mL (≈ 1.14 µM) | 1 µg/mL (≈ 0.57 µM) | 0.25 µg/mL (≈ 0.142 µM) | 4 µg/mL (≈ 2.28 µM) | 1 µg/mL (≈ 0.57 µM) | 2 µg/mL (≈ 1.14 µM) | 1 µg/mL (≈ 0.57 µM) | 2 µg/mL (≈ 1.14 µM) |
